Source: patent publication US20240041830A1, “CIRCULATING BIOMARKERS OF RESPONSE TO PD-1/PD-L1 BLOCKADE AND GSK-3 INHIBITION” (Brown University, priority 2022, published 2024)

Legend:
TALL-104 = assay: microarray analysis; assay type: cell-based, human; details: 1 μM, 24 hours, vs untreated
Protocol: (§1) Microarrays. A total of 0.5×10^6 tumor cells (HCT-116, HT-29, KM12C) were plated in a 6-well plate and allowed to adhere overnight before 24-hour treatment, as indicated. Then, 1×10^6 immune cells (NK92, TALL-104) were plated and treated with elraglusib as indicated for twenty-four h. RNA was isolated from cell pellets in batches of six using a RNeasy Plus Mini Kit (Cat #74134, Qiagen, Hilden, Germany). Acceptable RNA concentration and quality were verified with Nanodrop and Bioanalyzer measurements. GeneChip™ Human Transcriptome Array 2.0 assays were conducted according to manufacturer instructions in two batches using randomized samples to limit batch effects (Cat #902162, Applied Biosystems, Waltham, MA, USA). Applied Biosystems Transcriptomic Analysis Console (TAC) software (RRID: SCR_016519) was used to calculate fold changes in gene expression relative to the untreated control cells. Values were considered statistically significant for p values<0.05.
Microarray analysis was used to obtain insights into gene expression changes in immune cell lines post-GSK-3 inhibition with elraglusib. Immune cell lines (TALL-104, NK-92) were treated with elraglusib at IC50 concentrations or DMSO as vehicle control for twenty-four hours and treated versus untreated samples were compared in triplicate using microarray analysis. FIG. 11. Results were calculated using a fold-change (FC) cutoff of >1.5, <−1.5, and a minimum p-value of <0.05. NK-92 cells had sixty-one differentially expressed genes post-treatment (FIG. 3D). the inventors observed an increase in genes that promote immune cell proliferation (TNFSF14, RAB38) and control immune cell adhesion and migration (WNK1) post-elraglusib treatment.
TABLE 12 description. TALL-104 immune cell microarray analysis. TALL-104 immune cells were treated with 1 μM elraglusib for 24 hours and treated versus untreated control samples were compared in triplicate via microarray analysis (N=3). Table showing differentially expressed genes of interest with their corresponding fold changes, p values, descriptions, and functions. Genes are ordered by fold change and were calculated using a fold change cutoff of >1.5, <−1.5, and a minimum p value of <0.05.

SW480 = assay: multicolor co-culture of SW480 and TALL-104 T cells; assay type: cell-based, human
Excerpt: Multicolor immune cell co-culture experiments.
Elraglusib sensitizes tumor cells to immune-mediated cytotoxicity. […] FIG. 8A. TALL-104 cells are a human leukemic T cell line.
FIG. 1A. […] FIG. 1B. […] FIG. 1C. […] FIG. 1D. […] FIG. 1E. […] FIG. 1F.

[1] = system: adult T-cell leukemia/lymphoma (ATLL); assay: case of refractory ATLL treated in clinical trial NCT03678883; assay type: in vivo, human
Excerpt: This EXAMPLE discloses a case of adult T-cell leukemia/lymphoma (ATLL) treated with elraglusib. A patient developed diffuse lymphadenopathy. […] CSF was positive for ATLL involvement. Twenty-two months after the diagnosis of ATLL was confirmed, as a fourth-line therapy in the presence of actively progressing disease, the patient was enrolled a Phase I/II study investigating the safety and efficacy of elraglusib, a selective small molecule inhibitor of glycogen synthase kinase-3 beta (GSK-3β) as monotherapy or in combination with chemotherapy in refractory solid tumors and hematological malignancies (NCT03678883). The patient started treatment with single-agent elraglusib (12.37 mg/kg IV twice weekly: 21-day cycle). […] This stability was confirmed on CT imaging after five and seven cycles of therapy.

HCT-116 = assay: microarray analysis; assay type: cell-based, human; details: HCT-116 by context; 24 hours vs untreated
Protocol: as §1
The inventors then utilized microarray analysis to gain insights into gene expression changes in colorectal cancer cell lines post-GSK-3 inhibition with elraglusib. Several colorectal cancer cell lines (HCT-116, HT-29, KM12C) were treated with elraglusib at IC-50 concentrations or DMSO as vehicle control for twenty-four hours. Treated versus untreated samples were compared in triplicate using microarray analysis FIG. 10. Results were calculated using a fold change (FC) cutoff of >1.5, <−1.5, and a minimum p-value of<0.05. HCT-116 cells had 340 differentially expressed genes post-treatment. FIG. 2C.

[2] = system: refractory solid tumors of multiple tissue origins; assay: Phase 1 clinical trial (NCT03678883), survival; assay type: in vivo, human
Protocol: Clinical specimens. Archival tumor specimens and peripheral blood samples were collected from patients enrolled in the Phase I study of elraglusib (Clinicaltrials.gov NCT03678883) who received treatment at the Lifespan Cancer Institute (Providence, RI, USA). The analysis was conducted in accordance with the Declaration of Helsinki and the International Conference on Harmonization Good Clinical
Patient plasma concentrations of cytokines from a Phase 1 clinical trial investigating elraglusib correlate with progression-free survival, overall survival, and in vivo response to therapy results. To determine the clinical relevance of the biomarkers of response identified in our murine model, the inventors next employed Luminex 200 technology to analyze plasma samples from patients with refractory solid tumors of multiple tissue origins enrolled in a Phase 1 clinical trial investigating elraglusib (NCT03678883).
TABLE 14 description. Individual patient information for human cytokine analysis. Tumor type, elraglusib dose (mg, mg/kg), number of cycles, age at enrollment, sex, race, ethnicity, median progression free survival and median overall survival data is shown (N=19).

[3] = N=19 patients, multiple tumor types
[4] = Subject 05003, Colorectal, 1 mg/kg
[5] = Subject 05005, Colorectal, 1 mg/kg, 2 cycles

In the case of `Cn1cc(C2=C(c3coc4ccc(F)cc34)C(=O)NC2=O)c2cc3c(cc21)OCO3` [elraglusib], the “ACVR1B Fold Change” value (TALL-104) was −1.61, the “BCL2A1 Fold Change” value (TALL-104) was 1.63 and the “CAMK1D Fold Change” value (TALL-104) was −2.5. For the same compound, the “CCL3 Fold Change” value (TALL-104) was 1.52, the “CCR8 Fold Change” value (TALL-104) was −2.14 and the “CD84 Fold Change” value (TALL-104) was −1.53. The “CKS1B Fold Change” value (TALL-104) was 1.6, the “DUSP6 Fold Change” value (TALL-104) was −1.66 and the “HSPA1A Fold Change” value (TALL-104) was −1.63. The “KIF7 Fold Change” value (TALL-104) was 1.56, the “ORAI3 Fold Change” value (TALL-104) was 1.51 and the “PPARA Fold Change” value (TALL-104) was −1.54. The “PTPN3 Fold Change” value (TALL-104) was −1.56, the “PTPN14 Fold Change” value (TALL-104) was −1.62 and the “RNY4 Fold Change” value (TALL-104) was 2.19. For the same compound, the “RNY5 Fold Change” value (TALL-104) was 1.66, the “STX19 Fold Change” value (TALL-104) was 1.58 and the “UBE3A Fold Change” value (TALL-104) was −1.73. The “VAMP8 Fold Change” value (TALL-104) was 1.56, the “dead cells out of total cells” value (SW480; co-culture with TALL-104, 5 μM, 24 hours, E:T 1:1, normalized, without drug approximately 45%) was 60% and the “dead cells out of total cells” value (SW480; co-culture with TALL-104, 10 μM, 24 hours, E:T 1:1, normalized, without drug approximately 45%) was 65%. For the same compound, the “dead cells out of total cells” value (SW480; tumor cells pre-treated 5 μM for twenty-four hours, then co-cultured with TALL-104) was 65%, the tolerability ([1]; 12.37 mg/kg IV twice weekly) was “tolerated the treatment well without significant adverse effects” and the “sIL-2 r serum concentration” value ([1]; after nineteen cycles of treatment, 9,043 ng/ml one month before treatment) was 2,094 ng/ml. For the same compound, the “CT imaging response by RECIST Criteria” value ([1]; after ten cycles (seven months), 12.37 mg/kg IV twice weekly) was “partial response”, the CT imaging response ([1]; after two cycles, 12.37 mg/kg IV twice weekly, 21-day cycle) was “stable disease” and the “duration of sustained reduction of peripheral blood ATLL cells” value ([1]; elraglusib monotherapy) was “fifteen”. The CMTM4 fold change (HCT-116) was −1.84, the NEK2 fold change (HCT-116) was −2.21 and the PPP1R1C fold change (HCT-116) was 1.78. The median overall survival [2, 3] was 101 days, the median progression-free survival [2, 3] was 75.9 days and the “OS” value [2, 4] was 26 days. For the same compound, the “PFS” value [2, 4] was 26 days, the “PFS” value ([2]; Subject 05004, Colorectal, 1 mg/kg) was 28 days and the “OS” value [2, 5] was 105 days. The “PFS” value [2, 5] was 99 days, the “OS” value ([2]; Subject 05006, HCC, 2 mg/kg) was 234 days and the “PFS” value ([2]; Subject 05006, HCC, 2 mg/kg) was 234 days. The “PFS” value ([2]; Subject 05009, Cholangiocarcinoma, 2 mg/kg) was 46 days, the “OS” value ([2]; Subject 05011, NSCLC, 2 mg/kg) was 39 days and the “PFS” value ([2]; Subject 05011, NSCLC, 2 mg/kg) was 31 days. The “PFS” value ([2]; Subject 05013, Colorectal, 3.3 mg/kg) was 130 days, the “PFS” value ([2]; Subject 05017, Colorectal, 5 mg/kg) was 83 days and the “PFS” value ([2]; Subject 05018, NSCLC, 5 mg/kg) was 41 days. For the same compound, the “PFS” value ([2]; Subject 05024, Appendix, 7 mg/kg) was 41 days.
